Laboratory results: patent publication US10421718B2, “EBNA1 inhibitors and their method of use” (priority 2013, dated 2019)

target: T1, His-EBNA1 (DNA binding domain of EBNA1, amino acids 459-607) (Epstein-Barr virus, UniProt P03211); test: Inhibition of 5′-biotin-oPL4624 binding to His-EBNA1 using Alpha Screen technology; details: Alpha Screen Activity (IC50, inhibition of 5′-biotin-oPL4624 binding to His-EBNA1), 15 nM His-EBNA1, 0.2 nM bt-oPL4624, 2 hr room temperature
T1 construct: made in house; host or cells: E. coli
T1 sequence (P03211 459-607): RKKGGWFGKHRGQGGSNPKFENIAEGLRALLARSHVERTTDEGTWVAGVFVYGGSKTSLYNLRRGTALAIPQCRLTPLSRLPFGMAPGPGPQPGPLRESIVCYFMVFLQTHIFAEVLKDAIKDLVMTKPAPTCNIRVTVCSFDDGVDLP
Method: Inhibition of 5′-biotin-oPL4624 binding to His-EBNA1 using Alpha Screen technology: Assays were performed using the DNA binding domain of EBNA1 (amino acids 459-607), which was His-tagged (His-EBNA1) and the self-complementary biotinylated (bt) oligonucleotide with the sequence 5′-bt-[…]-ATGCTACCC-3′ (bt-oPL4624). The protein was expressed in E. coli and purified according to Barwell, et al. (Barwell J A, Bochkarev A, Pfuetzner R A, Tong H, Yang D S, Frappier L, Edwards A M. (1995) Overexpression, purification, and crystallization of the DNA binding and dimerization domains of the Epstein-Barr virus nuclear antigen 1. J Biol Chem. 270: 20556-9.). The bt-oPL4624 oligonucleotide was purchased from Integrated DNA Technologies, Inc (IDT). AlphaScreen donor, acceptor beads and white, opaque 384-well assay plates were purchased from PerkinElmer, Inc.
Assays contained 15 nM His-EBNA1, 0.2 nM bt-oPL4624, 5 μg/mL AlphaScreen streptavidin donor beads and nickel chelate acceptor beads, and a series of concentrations of test compound ranging from 3.2 nM to 100 μM in a total volume of 40 μL assay buffer (25 mM Tris, pH 7.2, 160 mM NaCl, 1 mM MgCl2). His-EBNA1 (30 nM) and bt-oPL4624 (0.4 nM) were preincubated with 10 μg/mL nickel chelate AlphaScreen acceptor bead, or 10 μg/mL streptavidin AlphaScreen donor bead, respectively, for 30 minutes at room temperature in assay buffer. Twenty microliters of His-EBNA1/acceptor bead mix and bt-oPL4624/donor bead mix were transferred to assay plates containing […] of 1:3 serial dilutions of test compounds previously prepared in DMSO at concentrations ranging from 0.32 μM to 10 mM. Nonspecific binding was determined with 5 μg/mL AlphaScreen acceptor bead in the absence of His-EBNA1. After 2 hr incubation at room temperature, the AlphaScreen signal was measured on the Envision plate reader (PerkinElmer, Inc.) at 680 nm excitation and 570 nm emission. Inhibition values at each concentration of test compound were determined by setting 100% equal to raw data values in the absence of EBNA1 and 0% equal to the raw data values in the presence of EBNA1. Nonlinear regression fits of the inhibition values to a one-site dose-response equation were performed using GraphPad Prism.

SMILES	IC50
O=C(O)c1cccc(C#Cc2ccc3[nH]cnc3c2)c1-n1cccc1 [Entry 41]	1 to 10 µM
O=C(O)c1cccc(C#Cc2ccc3[nH]ccc3c2)c1-n1cccc1 [Entry 42, 3-[2-(1H-indol-5-yl)ethynyl]-2-(1H-pyrrol-1-yl)benzoic acid]	1 to 10 µM
O=C(O)c1cccc(C#Cc2ccc3cc[nH]c3c2)c1-n1cccc1 [Entry 43, 3-[2-(1H-indol-6-yl)ethynyl]-2-(1H-pyrrol-1-yl)benzoic acid]	< 1 µM
Cc1ccc(C#Cc2cccc(C(=O)O)c2-n2cccc2)cc1 [Entry 44, 3-[2-(4-methylphenyl)ethynyl]-2-(1H-pyrrol-1-yl)benzoic acid]	< 1 µM
O=C(O)c1cccc(C#Cc2cc(F)cc(F)c2)c1-n1cccc1 [Entry 45, 3-[2-(3,5-difluorophenyl)ethynyl]-2-(1H-pyrrol-1-yl)benzoic acid]	1 to 10 µM
O=C(O)c1cccc(C#Cc2cccc(OC(F)F)c2)c1-n1cccc1 [Entry 46, 3-{2-[3-(difluoromethoxy)phenyl]ethynyl}-2-(1H-pyrrol-1-yl)benzoic acid]	1 to 10 µM
C#Cc1cccc(C(=O)O)c1-n1cccc1 [Entry 47, 3-ethynyl-2-(1H-pyrrol-1-yl)benzoic acid]	10 to 100 µM
CC(C)(N)C#Cc1cccc(C(=O)O)c1-n1cccc1 [Entry 48, 3-(3-amino-3-methylbut-1-yn-1-yl)-2-(1H-pyrrol-1-yl)benzoic acid]	100 to 1000 µM
CC(C)(C)C#Cc1cccc(C(=O)O)c1-n1cccc1 [Entry 49, 3-(3,3-dimethylbut-1-yn-1-yl)-2-(1H-pyrrol-1-yl)benzoic acid]	1 to 10 µM
Cc1ccc(C)n1-c1c(C#Cc2ccccc2)cccc1C(=O)O [Entry 50, 2-(2,5-dimethyl-1H-pyrrol-1-yl)-3-(2-phenylethynyl)benzoic acid]	< 1 µM
O=C(O)c1cncc(C#Cc2ccc(F)cc2)c1-n1cccc1 [Entry 51]	1 to 10 µM
O=C(O)c1cncc(C#Cc2ccccc2)c1-n1cccc1 [Entry 52, 5-(2-phenylethynyl)-4-(1H-pyrrol-1-yl)pyridine-3-carboxylic acid]	10 to 100 µM
NC1(C#Cc2cccc(C(=O)O)c2-n2cccc2)CCCCC1 [Entry 53, 3-[2-(1-aminocyclohexyl)ethynyl]-2-(1H-pyrrol-1-yl)benzoic acid trifluoroacetic acid]	< 1 µM
O=C(O)c1cccc(C#CC2(O)CCCCC2)c1-n1cccc1 [Entry 54, 3-[2-(1-hydroxycyclohexyl)ethynyl]-2-(1H-pyrrol-1-yl)benzoic acid]	1 to 10 µM
CCCCC(CC)C(O)C#Cc1cccc(C(=O)O)c1-n1cccc1 (centres unmarked) [Entry 55, 3-(4-ethyl-3-hydroxyoct-1-yn-1-yl)-2-(1H-pyrrol-1-yl)benzoic acid]	< 1 µM
O=C(O)c1cccc(C#Cc2cn3ccnc3cn2)c1-n1cccc1 [Entry 56, 3-(2-{imidazo[1,2-a]pyrazin-6-yl}ethynyl)-2-(1H-pyrrol-1-yl)benzoic acid]	< 1 µM
O=C(O)c1cccc(C#Cc2cccc(O)c2)c1-n1cccc1 [Entry 57, 3-[2-(3-hydroxyphenyl)ethynyl]-2-(1H-pyrrol-1-yl)benzoic acid]	< 1 µM
O=C(O)c1cc(Cl)cc(C#Cc2ccc(F)cc2)c1-n1cccc1 [Entry 58, 5-chloro-3-[2-(4-fluorophenyl)ethynyl]-2-(1H-pyrrol-1-yl)benzoic acid]	10 to 100 µM
O=C(O)c1cc(Cl)cc(C#Cc2ccccc2)c1-n1cccc1 [Entry 59, 5-chloro-3-(2-phenylethynyl)-2-(1H-pyrrol-1-yl)benzoic acid]	10 to 100 µM
O=C(O)c1cc(F)cc(C#Cc2ccc(F)cc2)c1-n1cccc1 [Entry 60, 5-fluoro-3-[2-(4-fluorophenyl)ethynyl]-2-(1H-pyrrol-1-yl)benzoic acid]	100 to 1000 µM
O=C(O)c1cc(F)cc(C#Cc2ccccc2)c1-n1cccc1 [Entry 61, 5-fluoro-3-(2-phenylethynyl)-2-(1H-pyrrol-1-yl)benzoic acid]	10 to 100 µM
O=C(O)c1cccc(C#CC2CC2)c1-n1cccc1 [Entry 62, 3-(2-cyclopropylethynyl)-2-(1H-pyrrol-1-yl)benzoic acid]	< 1 µM
CC(C)(O)C#Cc1cccc(C(=O)O)c1-n1cccc1 [Entry 63, 3-(3-hydroxy-3-methylbut-1-yn-1-yl)-2-(1H-pyrrol-1-yl)benzoic acid]	< 1 µM
CN(C)CC#Cc1cccc(C(=O)O)c1-n1cccc1 [Entry 64, 3-[3-(dimethylamino)prop-1-yn-1-yl]-2-(1H-pyrrol-1-yl)benzoic acid]	100 to 1000 µM

SMILES	IC50
O=C(O)c1cccc(C#CCCc2ccccc2)c1-n1cccc1 [Entry 65, 3-(4-phenylbut-1-yn-1-yl)-2-(1H-pyrrol-1-yl)benzoic acid]	< 1 µM
O=C(O)c1cccc(C#CCCCO)c1-n1cccc1 [Entry 66, 3-(5-hydroxypent-1-yn-1-yl)-2-(1H-pyrrol-1-yl)benzoic acid]	< 1 µM
COc1ccc(C#Cc2cccc(C(=O)O)c2-n2cccc2)cc1 [Entry 67, 3-[2-(4-methoxyphenyl)ethynyl]-2-(1H-pyrrol-1-yl)benzoic acid]	1 to 10 µM
O=C(O)c1cccc(C#Cc2ccncc2)c1-n1cccc1 [Entry 68, 3-[2-(pyridin-4-yl)ethynyl]-2-(1H-pyrrol-1-yl)benzoic acid]	< 1 µM
O=C(O)c1cccc(C#Cc2cccnc2)c1-n1cccc1 [Entry 69, 3-[2-(pyridin-3-yl)ethynyl]-2-(1H-pyrrol-1-yl)benzoic acid]	10 to 100 µM
COc1cccc(C#Cc2cccc(C(=O)O)c2-n2cccc2)c1 [Entry 70, 3-[2-(3-methoxyphenyl)ethynyl]-2-(1H-pyrrol-1-yl)benzoic acid]	1 to 10 µM
O=C(O)c1cccc(C#Cc2ccc(F)cc2)c1-n1cccc1 [Entry 71, 3-[2-(4-fluorophenyl)ethynyl]-2-(1H-pyrrol-1-yl)benzoic acid]	1 to 10 µM
O=C(O)c1cccc(C#Cc2ccccc2)c1-n1cccc1 [Entry 72, 3-(2-phenylethynyl)-2-(1H-pyrrol-1-yl)benzoic acid]	< 1 µM
CN(CC#Cc1cccc(C(=O)O)c1-n1cccc1)Cc1ccccc1 [Entry 73, 3-{3-[benzyl(methyl)amino]prop-1-yn-1-yl}-2-(1H-pyrrol-1-yl)benzoic acid]	< 1 µM
O=C(O)c1cccc(C#CCn2ccnc2)c1-n1cccc1 [Entry 74, 3-[3-(1H-imidazol-1-yl)prop-1-yn-1-yl]-2-(1H-pyrrol-1-yl)benzoic acid]	< 1 µM
O=C(O)c1cccc(C#Cc2cscn2)c1 [Entry 75, 3-[2-(1,3-thiazol-4-yl)ethynyl]benzoic acid]	10 to 100 µM
O=C(O)c1cccc(C#Cc2c[nH]c3ncccc23)c1 [Entry 76, 3-(2-{1H-pyrrolo[2,3-b]pyridin-3-yl}ethynyl)benzoic acid]	10 to 100 µM
O=C(O)c1cccc(C#Cc2ccc3[nH]ccc3c2)c1 [Entry 77, 3-[2-(1H-indol-5-yl)ethynyl]benzoic acid]	< 1 µM
Nc1c(C#Cc2c[nH]c3ncccc23)cccc1C(=O)O [Entry 78]	< 1 µM
Nc1c(C#Cc2cccc3[nH]ccc23)cccc1C(=O)O [Entry 79, 2-amino-3-[2-(1H-indol-4-yl)ethynyl]benzoic acid]	< 1 µM
Nc1c(C#Cc2ccc3cc[nH]c3c2)cccc1C(=O)O [Entry 80, 2-amino-3-[2-(1H-indol-6-yl)ethynyl]benzoic acid]	< 1 µM
Nc1c(C#Cc2ccc3[nH]ccc3c2)cccc1C(=O)O [Entry 81]	< 1 µM
Nc1c(C#Cc2cccc(CO)c2)cccc1C(=O)O [Entry 82, 2-amino-3-{2-[3-(hydroxymethyl)phenyl]ethynyl}benzoic acid]	1 to 10 µM
Nc1c(C#Cc2cccc(O)c2)cccc1C(=O)O [Entry 83]	1 to 10 µM
Nc1c(C#Cc2ccccc2)cccc1C(=O)O [Entry 84]	10 to 100 µM
O=C(O)c1cccc(C#Cc2ccccc2)c1F [Entry 85, 2-fluoro-3-(2-phenylethynyl)benzoic acid]	1 to 10 µM
O=C(O)c1cccc(C#Cc2c[nH]c3ncccc23)c1F [Entry 86, 2-fluoro-3-(2-{1H-pyrrolo[2,3-b]pyridin-3-yl}ethynyl)benzoic acid]	10 to 100 µM
O=C(O)c1cccc(C#Cc2cnc3cnccn23)c1F [Entry 87, 2-fluoro-3-(2-{imidazo[1,2-a]pyrazin-3-yl}ethynyl)benzoic acid]	< 1 µM
